Test results as given in ChEMBL document CHEMBL1201862, “PubChem BioAssay data set” (2004).
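Compound exposure: 48 hours, 5 concentrations, 96-well plates. At the GI50, growth is halved.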 The source made the active and inactive calls. Cut-off read from the data, not from the text of the source: active = GI50 up to about 1.1 µM and inactive = higher.

Key:
Assay in all cases: growth of human tumour cells (NCI), 48 h
CAKI-1 = system: CAKI-1
NCI-H23 = system: NCI-H23
SF-295 = system: SF-295
SNB-75 = system: SNB-75
U-251 = system: U-251
TK-10 = system: TK-10
OVCAR-8 = system: OVCAR-8
K562 = system: K562
786-0 = system: 786-0
MOLT-4 = system: MOLT-4
UACC-257 = system: UACC-257
RXF 393 = system: RXF 393
M14 = system: M14
SK-MEL-28 = system: SK-MEL-28
HCT-15 = system: HCT-15
SK-MEL-5 = system: SK-MEL-5
HOP-92 = system: HOP-92
NCI/ADR-RES = system: NCI/ADR-RES

SMILES | GI50 (CAKI-1) | GI50 (NCI-H23) | GI50 (SF-295) | GI50 (SNB-75) | GI50 (U-251) | GI50 (TK-10) | GI50 (OVCAR-8) | GI50 (K562) | GI50 (786-0) | GI50 (MOLT-4) | GI50 (UACC-257) | GI50 (RXF 393) | GI50 (M14) | GI50 (SK-MEL-28) | GI50 (HCT-15) | GI50 (SK-MEL-5) | GI50 (HOP-92) | GI50 (NCI/ADR-RES)
C[Si](C)(c1ccc(C(=O)O)cc1)c1ccc(C(=O)O)cc1 | > 100 µM (inactive) | > 100 µM (inactive) | > 100 µM (inactive) | > 100 µM (inactive) | > 100 µM (inactive) | > 100 µM (inactive) | > 100 µM (inactive) | > 100 µM (inactive) | > 100 µM (inactive) | > 100 µM (inactive) | > 100 µM (inactive) | > 100 µM (inactive) | > 100 µM (inactive) | > 100 µM (inactive) | > 100 µM | > 100 µM (inactive) | > 100 µM (inactive) | > 100 µM (inactive)
O=[N+]([O-])c1ccc(-c2nc3ccccc3o2)cc1 | > 100 µM (inactive) | > 100 µM (inactive) | > 100 µM (inactive) | > 100 µM (inactive) | > 100 µM (inactive) | > 100 µM (inactive) | > 100 µM (inactive) | > 100 µM (inactive) | > 100 µM (inactive) | > 100 µM (inactive) | > 100 µM (inactive) | > 100 µM (inactive) | > 100 µM (inactive) | > 100 µM (inactive) | > 100 µM | > 100 µM (inactive) | > 100 µM (inactive) | > 100 µM (inactive)
CC1CCC2C(C)(C)CC3(C)CCC1C23O (stereo not given) | 14.2 µM (inactive) | 16.1 µM (inactive) | 12.7 µM (inactive) | 18.8 µM (inactive) | 16 µM (inactive) | 17.7 µM (inactive) | 17.2 µM (inactive) | 12.4 µM (inactive) | 15.6 µM (inactive) | 11.2 µM (inactive) | 16.2 µM (inactive) | 17 µM (inactive) | 16 µM (inactive) | 16.3 µM (inactive) | 16.9 µM | 14.6 µM (inactive) | 13.3 µM (inactive) | 14.6 µM (inactive)
CC(C)(C)OC(=O)N1CCC2(C)CC(=O)CC=C12 (stereo not given) | > 100 µM (inactive) | > 100 µM (inactive) | > 100 µM (inactive) | > 100 µM (inactive) | > 100 µM (inactive) | > 100 µM (inactive) | > 100 µM (inactive) | > 100 µM (inactive) | > 100 µM (inactive) | > 100 µM (inactive) | 28.2 µM (inactive) | > 100 µM (inactive) | > 100 µM (inactive) | > 100 µM (inactive) | > 100 µM | > 100 µM (inactive) | > 100 µM (inactive) | > 100 µM (inactive)
CSc1nc2ccccc2c(=O)n1/N=C1\C(=O)N(CN2CCCCC2)c2ccc(Cl)cc21 | 23.3 µM (inactive) | 28.4 µM (inactive) | 37 µM (inactive) | 19.7 µM (inactive) | 33.3 µM (inactive) | 26.4 µM (inactive) | 37.2 µM (inactive) | 5.22 µM (inactive) | 22.3 µM (inactive) | 12.4 µM (inactive) | 20.4 µM (inactive) | 17.5 µM (inactive) | 30.5 µM (inactive) | 60.5 µM (inactive) | 13.3 µM | 27.9 µM (inactive) | 32.9 µM (inactive) | 34.8 µM (inactive)
O=C(Cc1ccc(Cl)c(Cl)c1)NCCCN1CCN(CCCN2CCCCC2)CC1 | 20.4 µM (inactive) | 19.8 µM (inactive) | 19 µM (inactive) | 19.5 µM (inactive) | 15.7 µM (inactive) | 17.2 µM (inactive) | 27.6 µM (inactive) | 2.17 µM (inactive) | 16.4 µM (inactive) | 10.9 µM (inactive) | 5.26 µM (inactive) | 13.2 µM (inactive) | 19.3 µM (inactive) | 2.56 µM (inactive) | 20.7 µM | 10.4 µM (inactive) | 11.1 µM (inactive) | > 100 µM (inactive)
CN1C2CCC1CC(CCOC(c1ccc(F)cc1)c1ccc(F)cc1)C2 (stereo not given) | 16.3 µM (inactive) | 19.5 µM (inactive) | 16.9 µM (inactive) | 14.3 µM (inactive) | 14.9 µM (inactive) | 15.3 µM (inactive) | 17.3 µM (inactive) | 12.4 µM (inactive) | 15.9 µM (inactive) | 11.9 µM (inactive) | 17.1 µM (inactive) | 10.4 µM (inactive) | 16.4 µM (inactive) | 16 µM (inactive) | 16.9 µM | 9.23 µM (inactive) | 15.7 µM (inactive) | 17.5 µM (inactive)
Cc1ccc(-c2c(-c3ccccc3)[nH]c(C)c2C(=O)ONC(=O)c2ccccc2)cc1 | 2.19 µM (inactive) | 5.53 µM (inactive) | 1.93 µM (inactive) | 1.92 µM (inactive) | 1.84 µM (inactive) | 5.52 µM (inactive) | 4.62 µM (inactive) | 2.55 µM (inactive) | 3.03 µM (inactive) | 2.74 µM (inactive) | 13.7 µM (inactive) | 1.87 µM (inactive) | 5.19 µM (inactive) | 12.1 µM (inactive) | 9.25 µM | 6.41 µM (inactive) | 1.67 µM (inactive) | 4.65 µM (inactive)
CN(C)c1ccc(/C=C2\C[C@H]3[C@@H]4CCC5=CC(=O)CC[C@]5(C)[C@H]4CC[C@]3(C)C2=O)cc1 | > 100 µM (inactive) | 52.7 µM (inactive) | > 100 µM (inactive) | > 100 µM (inactive) | 20.2 µM (inactive) | 32.5 µM (inactive) | 31.8 µM (inactive) | 19 µM (inactive) | 48 µM (inactive) | 14.8 µM (inactive) | 19 µM (inactive) | 99.5 µM (inactive) | 43.9 µM (inactive) | > 100 µM (inactive) | 34.4 µM | 12.4 µM (inactive) | 22.4 µM (inactive) | 38.3 µM (inactive)
COc1cc(C2c3cc4c(cc3OC(NNS(=O)(=O)c3ccc(C)cc3)C2C)OCO4)cc(OC)c1OC (stereo not given) | 1.68 µM (inactive) | 4.8 µM (inactive) | 0.989 µM (active) | 3.02 µM (inactive) | 2.14 µM (inactive) | 6.7 µM (inactive) | 8.91 µM (inactive) | 0.55 µM (active) | 7.76 µM (inactive) | 1.89 µM (inactive) | 3.21 µM (inactive) | 1.76 µM (inactive) | 0.776 µM (active) | 2.94 µM (inactive) | 1.29 µM | 0.883 µM (active) | 2 µM (inactive) | 3.24 µM (inactive)
O=C(Nc1ccc(Cl)cc1C(F)(F)F)C(=O)Nn1c(S)nc2ccccc2c1=O | > 100 µM (inactive) | > 100 µM (inactive) | > 100 µM (inactive) | 27.8 µM (inactive) | > 100 µM (inactive) | > 100 µM (inactive) | > 100 µM (inactive) | > 100 µM (inactive) | > 100 µM (inactive) | > 100 µM (inactive) | > 100 µM (inactive) | > 100 µM (inactive) | > 100 µM (inactive) | > 100 µM (inactive) | > 100 µM | > 100 µM (inactive) | 3.99 µM (inactive) | > 100 µM (inactive)
COc1ccc(C(=O)/C=C/c2ccc(OCC(=N)N)cc2)cc1 | > 10 µM (inactive) | 18.7 µM (inactive) | 16.3 µM (inactive) | 5.73 µM (inactive) | 13.9 µM (inactive) | 21.4 µM (inactive) | 14.3 µM (inactive) | 3.44 µM (inactive) | 16.3 µM (inactive) | 3.58 µM (inactive) | 18.5 µM (inactive) | 14.7 µM (inactive) | 17 µM (inactive) | 15.3 µM (inactive) | 17.2 µM | 17.3 µM (inactive) | 15.2 µM (inactive) | 28.2 µM (inactive)
Brc1c2c(c(Br)c3nsnc13)N=S=N2 | 19.1 µM (inactive) | 23.3 µM (inactive) | 27.1 µM (inactive) | 25.1 µM (inactive) | 23.1 µM (inactive) | 17.4 µM (inactive) | 25.6 µM (inactive) | 10.1 µM (inactive) | 15.6 µM (inactive) | 17.9 µM (inactive) | 42.4 µM (inactive) | 15 µM (inactive) | 22.5 µM (inactive) | 37.5 µM (inactive) | 24.6 µM | 20 µM (inactive) | 17.4 µM (inactive) | 26.7 µM (inactive)
CCOC(=O)N(NC(=O)NC(C)C)c1ccccc1 | > 100 µM (inactive) | > 100 µM (inactive) | > 100 µM (inactive) | > 100 µM (inactive) | > 100 µM (inactive) | > 100 µM (inactive) | > 100 µM (inactive) | > 100 µM (inactive) | > 100 µM (inactive) | > 100 µM (inactive) | > 100 µM (inactive) | > 100 µM (inactive) | > 100 µM (inactive) | > 100 µM (inactive) | > 100 µM | > 100 µM (inactive) | > 100 µM (inactive) | > 100 µM (inactive)
C[C@H]1O[C@@H](O[C@H]2[C@@H](O)C[C@H](O[C@H]3[C@@H](O)C[C@H](O[C@H]4CC[C@@]5(C)[C@H](CC[C@@H]6[C@@H]5CC[C@]5(C)[C@@H](C7=CC(=O)OC7)[C@@H](O)C[C@]65O)C4)O[C@@H]3C)O[C@@H]2C)C[C@H](O)[C@@H]1O [GITOXIN] | 0.107 µM (active) | 0.0869 µM (active) | 0.169 µM (active) | 0.703 µM (active) | 0.258 µM (active) | 0.254 µM (active) | 0.226 µM (active) | 0.361 µM (active) | 0.151 µM (active) | 0.0277 µM (active) | 0.522 µM (active) | 0.0991 µM (active) | 0.475 µM (active) | 1.15 µM (inactive) | 0.593 µM | 0.118 µM (active) | 0.402 µM (active) | 0.197 µM (active)
